The values below come from ChEMBL document CHEMBL5226367, “Synthesis, Optical Properties, and Antiproliferative Evaluation of NBD-Triterpene Fluorescent Probes” (J Nat Prod, 2023).

Data set [1] is described as follows: Drug localization in cytoplasm of human HT-29 cells assessed as green fluorescence at IC50 concentration incubated for 30 min to 24 hrs by DAPI staining based confocal microscopic analysis. In kind it is ADME, subcellular. Particulars: time 30-1440 min.
For data set [2], the system named is B16-F10. Kind of data set: Potency index, ratio of maslinic acid IC50 to test compound IC50 for cytotoxicity against mouse B16-F10 cells assessed as reduction in cell viability incubated for 72 hrs by MTT assay. In kind it is functional. (In general: Tetrazolium assays rely on reduction of a dye to a coloured formazan, in cell work by metabolically active cells.)

Data set [3] has as its system HT-29. The data set is described as follows: Cytotoxicity against human HT-29 cells assessed as decrease in cell density at IC50 concentration. In kind it is functional, cell-based. Particulars: time 30-1440 min, TDE = time-dependent effect.
A short description of data set [4]: Drug localization in cytoplasm of human HepG2 cells assessed as green fluorescence at IC50 concentration incubated for 30 min to 24 hrs by DAPI staining based confocal microscopic analysis. In kind it is ADME, subcellular. Particulars: time 30-1440 min.
For data set [5], the system named is HepG2. Kind of data set: Induction of apoptosis in human HepG2 cells at IC50 concentration incubated for 24 hrs by Annexin V-FITC/PI staining based flow cytometric analysis. In kind it is functional, cell-based.
In data set [6] the test system is HT-29. The data set is described as follows: Potency index, ratio of oleanolic acid IC50 to test compound IC50 for cytotoxicity against human HT-29 cells assessed as reduction in cell viability incubated for 72 hrs by MTT assay. In kind it is functional.
Data set [7] concerns HepG2. The data set is described as follows: Cytotoxicity against human HepG2 cells assessed as decrease in cell density at IC50 concentration. In kind it is functional, cell-based. Particulars: time 30-1440 min, TDE = time-dependent effect.
In data set [8] the test system is B16-F10. Kind of data set: Cytotoxicity against mouse B16-F10 cells assessed as decrease in cell density at IC50 concentration. In kind it is functional, cell-based. Particulars: time 30-1440 min, TDE = time-dependent effect.
Data set [9] relates to B16-F10. The data set is described as follows: Induction of apoptosis in mouse B16-F10 cells assessed as total apoptotic cells at IC50 concentration incubated for 72 hrs by Annexin V-FITC/PI staining based flow cytometric analysis relative to control. In kind it is functional. Background: A flow cytometer gives signals particle by particle.
Data set [10] is described as follows: Drug localization in cytoplasm of mouse B16-F10 cells assessed as green fluorescence at IC50 concentration incubated for 30 min to 24 hrs by DAPI staining based confocal microscopic analysis. In kind it is ADME, subcellular. Particulars: time 30-1440 min.
Data set [11] relates to HepG2. The data set is described as follows: Potency index, ratio of oleanolic acid IC50 to test compound IC50 for cytotoxicity against human HepG2 cells assessed as reduction in cell viability incubated for 72 hrs by MTT assay. In kind it is functional.
In data set [12] the test system is HepG2. The data set is described as follows: Potency index, ratio of maslinic acid IC50 to test compound IC50 for cytotoxicity against human HepG2 cells assessed as reduction in cell viability incubated for 72 hrs by MTT assay. In kind it is functional.
For data set [13], the system named is B16-F10. Kind of data set: Potency index, ratio of oleanolic acid IC50 to test compound IC50 for cytotoxicity against mouse B16-F10 cells assessed as reduction in cell viability incubated for 72 hrs by MTT assay. In kind it is functional.
Data set [14] has as its system HT-29. The data set is described as follows: Induction of apoptosis in human HT-29 cells assessed as total apoptotic cells at IC50 concentration incubated for 72 hrs by Annexin V-FITC/PI staining based flow cytometric analysis relative to control. In kind it is functional.
Data set [15] concerns HT-29. Kind of data set: Potency index, ratio of maslinic acid IC50 to test compound IC50 for cytotoxicity against human HT-29 cells assessed as reduction in cell viability incubated for 72 hrs by MTT assay. In kind it is functional.
The subject of data set [16] is HT-29. The data set is described as follows: Induction of apoptosis in human HT-29 cells at IC50 concentration incubated for 24 hrs by Annexin V-FITC/PI staining based flow cytometric analysis. In kind it is functional, cell-based.
Data set [17] deals with B16-F10. The data set is described as follows: Induction of apoptosis in mouse B16-F10 cells at IC50 concentration incubated for 24 hrs by Annexin V-FITC/PI staining based flow cytometric analysis. In kind it is functional, cell-based.
Data set [18] has as its system HepG2. Kind of data set: Induction of apoptosis in human HepG2 cells assessed as total apoptotic cells at IC50 concentration incubated for 72 hrs by Annexin V-FITC/PI staining based flow cytometric analysis relative to control. In kind it is functional.

The source made the active and inactive calls. No cut-off for these calls is given here.

In the case of `CC1(C)CC[C@]2(C(=O)O)CC[C@]3(C)C(=CC[C@@H]4[C@@]5(C)CC[C@H](OC(=O)CCCCCNc6ccc([N+](=O)[O-])c7nonc67)C(C)(C)[C@@H]5CC[C@]43C)[C@@H]2C1`, the Drug uptake entry in data set [1], in data set [4] and in data set [10] was “Active” throughout. Besides, the Ratio IC50 was determined as 15 in the data set on B16-F10 [2]; 22 in the data set with HT-29 [6]; 17 in the data set on HepG2 [11]; 7.9 with HepG2 [12]; 44 in the data set with B16-F10 [13]; 1.7 in the data set with HT-29 [15]. Also, the Activity result in the data set with HT-29 [3] is “Tde”; with HepG2 [7] it was “Tde”; with B16-F10 [8] it was “Tde”; in the data set with B16-F10 [9], 31%; in the data set with HT-29 [14], 31%; with HepG2 [18], 31%. The outcome with HepG2 [5], in the data set on HT-29 [16] and with B16-F10 [17] was Active.

On to `CC1(C)CC[C@]2(C(=O)O)CC[C@]3(C)C(=CC[C@@H]4[C@@]5(C)C[C@@H](OC(=O)CCCCCNc6ccc([N+](=O)[O-])c7nonc67)[C@H](O)C(C)(C)[C@@H]5CC[C@]43C)[C@@H]2C1`, for which the Drug uptake entry in data set [1], in data set [4] and in [10] was “Active” each time. For the same compound, the Ratio IC50 worked out at 7.4 in the data set on B16-F10 [2]; 65 in the data set with HT-29 [6]; 15 with HepG2 [11]; 7.1 in the data set with HepG2 [12]; 22 in the data set with B16-F10 [13]; 5 in the data set on HT-29 [15]. Further, the Activity entry in the data set with HT-29 [3], in the data set on HepG2 [7] and in the data set on B16-F10 [8] was “Tde” each time. Also, the result in the data set with HepG2 [5], in the data set with HT-29 [16] and with B16-F10 [17] was Active.
